Each structure is given as a SMILES string.

What is called fraction unbound is free concentration divided by total concentration. One may read the Papp as a coefficient for how fast a substance crosses the barrier. As usually defined, the chromatographic logD is a lipophilicity value derived from retention on a column.

Series [1] in a line: Fraction unbound by equilibrium dialysis. It is filed as in vitro ADME. The settings on record: pH 7.4. In a few lines: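 Test compounds at 1, 2, 20, 200, 2,000 and 5,000 nM in plasma, microsome suspension or buffer with 10% FCS, dialysed against 50 mM potassium phosphate pH 7.4 across a 12–14 kDa membrane, 37°C, 150 rpm, 4 h. Both sides quantified by LC-MS/MS against a standard curve; triplicates.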
(Equilibrium dialysis compares concentrations on both sides of a semipermeable membrane.)

Series [2] can be described thus: Parallel artificial membrane permeability assay (PAMPA). It is filed as in vitro ADME. Details: PAMPA: unit: 1e-6 cm/s. The settings on record: for PAMPA: unit not given. As for the experimental part:
The permeability of the compounds was assessed using the PAMPA method ([Yu et al., 2015]). The test compounds were dissolved in DMSO to a concentration of 5 mM. Next, the compounds were diluted in a stock plate in saline phosphate buffer (PBS), pH 6.5, containing 1% DMSO to a concentration of 1 µM. Then, 300 µl of each test compound was added to the donor plate. Afterward, 200 µl of PBS buffer, pH 7.4, was added to the acceptor plate. The donor plate was attached to the acceptor plate. The assembled acceptor-donor plate was then incubated at 37°C for 5 h under gentle agitation. To analyze the concentration of the compounds by mass spectrometry, two analysis plates (one for the donor and another for the acceptor plate) containing 300 μl of MEOH:ACN 50:50 were prepared. To the donor analysis plate, 90 µl of PBS, pH 6.5, and 10 µl of the content of the donor plate were added. For the acceptor analysis plate, 100 µl of the content of the acceptor plate was added. To monitor any potential decomposition/intrinsic instability of the test compounds in solution, samples from the stock plate were subjected to LC-MS/MS. The compounds that presented Pe ≥ 1.5 × 10^−6 cm/s were classified as permeable, while compounds that presented Pe < 1.5 × 10^−6 cm/s were considered poorly permeable or nonpermeable.
(PAMPA measures passive passage across an artificial lipid membrane.)

Series [3] is described as follows: Experimental distribution coefficient (eLogD) by LC retention time. The settings on record: for chromatographic logD: C18 column (LC retention time); for eLogD: Table S5. It is filed as physicochemical. The method, then:
For the eLogD assays ([Waring, 2010]), each compound (5 μl) from a 5 mM stock solution was diluted in 245 μl of a solution containing buffers A (5% MeOH, 10 mM ammonium acetate, pH 7.4) and B (100% MeOH, pH 7.4) (50:50). Nine control compounds with known eLogD and column retention times (acyclovir, atenolol, antipyrine, fluconazole, metoprolol, carbamazepine, ketoconazole, tolnaftate, and amiodarone; eLogD values ranging from −1.86 to 6.1) were subjected to LC-MS/MS in triplicate before and after the analysis of the test compounds. Retention times were recorded for each control and test compound in a C18 column. The retention time of each control compound was plotted against the respective eLogD values described in the literature ([Lombardo et al., 2002]; [Lombardo et al., 2004]; [Alelyunas et al., 2010]). The resulting linear equation (y = mx + b) was used to calculate the eLogD values of the test compounds, in which x is the retention time in minutes and y is the eLogD value.

Where [4] appears, read: PAMPA, Table 3, donor pH 6.5, acceptor pH 7.4, 5 h.
[5] abbreviates: Table 5, fraction unbound used to correct CLint.
The mark [6] stands for this setting: Table 6, fraction unbound used to correct plasma clearance.

In series [1] (Table S5, fraction unbound), `C=CCCn1c(CCNC(=O)COc2ccccc2)nc2ccccc21` [Compound 27] yielded a fraction unbound at 4 h, 1 µM of 0.86. For the same compound, the Papp at 5 h, 1 µM in series [2] (setting [4]) is 9.06 ×10⁻⁶ cm/s. The PAMPA in series [2] (Table S5) amounted to 9.06. The compound further returned a chromatographic logD in series [3] (pH 7.4, Table 3, pH 7.4) of 3.75. This compound also yielded an eLogD in series [3] of 3.75.
Regarding `O=C(COc1ccccc1)NCCc1nc2ccccc2n1CCOc1ccccc1` [Compound 20], in series [1] (Table S5, fraction unbound), the fraction unbound at 4 h, 1 µM is 0.41. Further, in series [2] (setting [4]), the Papp at 5 h, 1 µM was 4.3 ×10⁻⁶ cm/s. In series [2] (Table S5), the PAMPA was 4.30. This compound also had a chromatographic logD in series [3] (pH 7.4, Table 3, pH 7.4) of 4.24. The compound also displayed an eLogD in series [3] of 4.24.
For `COCCn1c(CCNC(=O)COc2ccccc2)nc2ccccc21` [Compound 29], the unbound share (fraction unbound) at 4 h, 1 µM in series [1] (Table S5, fraction unbound) is 1. The Papp at 5 h, 1 µM in series [2] (Table S5, unit inferred) came to 9.35 ×10⁻⁶ cm/s. The chromatographic logD in series [3] (pH 7.4, Table S5) came to 3.13.
Take `O=C(COc1ccccc1)NCCc1nc2ccccc2n1Cc1ccccc1` [Compound 26]: the fraction unbound at 4 h, 1 µM in series [1] (Table S5, fraction unbound) came to 0.61. The compound further yielded a Papp at 5 h, 1 µM in series [2] (setting [4]) of 8.72 ×10⁻⁶ cm/s. The same compound registered a PAMPA in series [2] (Table S5) of 8.72. The compound further came in with a chromatographic logD in series [3] (pH 7.4, Table 3, pH 7.4) of 4.06. In series [3], the eLogD came to 4.06.
Turning to `Cc1ccccc1OCC(=O)NCCc1nc2ccccc2[nH]1` [Compound 17], the fraction unbound at 4 h, 1 µM in series [1] (setting [5]) was 0.8; in series [1] (setting [6]), 0.06. The apparent permeability (Papp) at 5 h, 1 µM in series [2] (PAMPA, Table 5) was 5.9 ×10⁻⁶ cm/s. Besides, the chromatographic logD in series [3] (pH 7.4, Table 5) turned out to be 3.6.
Compound `O=C(COc1ccccc1Br)NCCc1nc2ccccc2n1CCOc1ccccc1Br` [Compound 23] had a fraction unbound at 4 h, 1 µM in series [1] (Table S5, fraction unbound) of 0.04. Also, in series [2] (Table S5, unit inferred), the Papp at 5 h, 1 µM worked out at 0.08 ×10⁻⁶ cm/s. In series [3] (pH 7.4, Table S5), the chromatographic logD is 4.69.
With `C=CCCn1c(CCNC(=O)COc2ccccc2Cl)nc2ccccc21` [Compound 38], the results for the free fraction (fraction unbound) at 4 h, 1 µM in series [1] (setting [5]) and in series [1] (setting [6]) were 0.5 and 0.01, respectively. In addition, in series [2] (PAMPA, Table 5), the Papp at 5 h, 1 µM amounted to 7.7 ×10⁻⁶ cm/s. Also, the chromatographic logD in series [3] (pH 7.4, Table 5) is 4.1.
In series [1] (Table S5, fraction unbound), `O=C(COc1cccc(NC(=O)CCCO)c1)NCCc1nc2ccccc2[nH]1` [Compound 7] gave a fraction unbound at 4 h, 1 µM of 1. This compound gave a Papp at 5 h, 1 µM in series [2] (Table S5, unit inferred) of 0.03 ×10⁻⁶ cm/s. The compound also registered a chromatographic logD in series [3] (pH 7.4, Table S5) of 2.23.
As for `Cn1c(CCNC(=O)COc2ccccc2)nc2ccccc21` [Compound 25], in series [1] (Table S5, fraction unbound), the fraction unbound at 4 h, 1 µM stood at 0.99. Moreover, the Papp at 5 h, 1 µM in series [2] (setting [4]) was 1.46 ×10⁻⁶ cm/s; in series [2] (Table S5, unit inferred) it was 6.55 ×10⁻⁶ cm/s. The same compound had a chromatographic logD in series [3] (pH 7.4, Table 3, pH 7.4) of 2.93. Further, the eLogD in series [3] stood at 2.93.
Turning to `O=C(COc1cccc([N+](=O)[O-])c1)NCCc1nc2ccccc2[nH]1` [Compound 8], the fraction unbound at 4 h, 1 µM in series [1] (Table S5, fraction unbound) turned out to be 1; in series [1] (Table S6, fraction unbound used to correct plasma clearance) it was 0.14. For the same compound, in series [2] (setting [4]), the Papp at 5 h, 1 µM was found to be 2.17 ×10⁻⁶ cm/s. The PAMPA in series [2] (Table S5) was determined as 2.17. This compound registered a chromatographic logD in series [3] (pH 7.4, Table 3, pH 7.4) of 2.98. The eLogD in series [3] is 2.98.

The record behind these values is paper PMC8767159, “Multiparameter Optimization of Trypanocidal Cruzain Inhibitors With In Vivo Activity and Favorable Pharmacokinetics” (Frontiers in Pharmacology, 2022).
